These results are taken from article PMC13626384 (Journal of medicinal chemistry, 2025).

Like-named read-outs stand apart in the source and are kept apart here.

One series concerns D283-med cell line. The experiment in a line: Cytotoxicity against D283-med cells. Type of series: cell-based, human.
The test system of a further series is SF188 cell line. The series is described as follows: Cytotoxicity against SF188 cells. Type of series: cell-based, human.
The next series has as its system H460 cell line. The experiment in a line: Cytotoxicity against H460 cells. Type of series: cell-based. Particulars: read-out: H460 IC50; non-small cell lung cancer cell line.
A short description of series [1]: PAMPA-BBB permeability assay. Particulars: PAMPA-BBB.
Series [2] in a line: Caco-2 cell permeability and efflux. Type of series: in vitro ADME, human. Particulars: human, Caco-2.
The mark [3] stands for this setting: read-out: D283-med IC50, medulloblastoma cell line.
The mark [4] stands for this setting: read-out: SF188 IC50, glioblastoma cell line.

Turning to `CC(C)C[C@H](NC(=O)[C@@H]1Cc2c(F)c(F)c(c(F)c2F)S(=O)(=O)c2cccc(c2)CC(=O)N[C@@H](C(C)(C)O)C(=O)N1)C(=O)[C@@]1(C)CO1` [Compound 24, (5S,8S)-3^2,3^3,3^5,3^6-Tetrafluoro-8-(2-hydroxypropan-2-yl)-N-((S)-4-methyl-1-((R)-2-methyloxiran-2-yl)-1-oxopentan-2-yl)-7,10-dioxo-2-thia-6,9-diaza-1(1,3),3(1,4)-dibenzenacycloundecaphane-5-carboxamide 2,2-dioxide], the results for the IC50 with D283-med cell line (setting [3]), with SF188 cell line (setting [4]) and in the series with H460 cell line were 54 ± 2 nM, 100 ± 7 nM and 410 ± 59 nM, respectively. Besides, in series [1], the “% Recovery” value is 79%. Also, in series [1], the “Mean Permeability” value was 2.06 10^−6 cm/sec.

As for `CC(C)C[C@H](NC(=O)[C@@H]1Cc2c(F)c(F)c(c(F)c2F)S(=O)(=O)c2ccc(cc2)CCC(=O)N[C@@H](C(C)C)C(=O)N1)C(=O)[C@@]1(C)CO1` [Compound 29, (5S,8S)-3^2,3^3,3^5,3^6-Tetrafluoro-8-isopropyl-N-((S)-4-methyl-1-((R)-2-methyloxiran-2-yl)-1-oxopentan-2-yl)-7,10-dioxo-2-thia-6,9-diaza-1,3(1,4)-dibenzenacyclododecaphane-5-carboxamide 2,2-dioxide], the IC50 with D283-med cell line (setting [3]) amounted to 146 ± 29 nM; with SF188 cell line (setting [4]) it was 150 ± 12 nM; in the series with H460 cell line it was 470 ± 154 nM.

For the molecule `CC(C)C[C@H](NC(=O)[C@@H]1Cc2c(F)c(F)c(c(F)c2F)Sc2cccc(c2)CC(=O)N[C@@H](C(C)C)CC(=O)N1)C(=O)[C@@]1(C)CO1` [Compound 17, (5S,9R)-3^2,3^3,3^5,3^6-Tetrafluoro-9-isopropyl-N-((S)-4-methyl-1-((R)-2-methyloxiran-2-yl)-1-oxopentan-2-yl)-7,11-dioxo-2-thia-6,10-diaza-1(1,3),3(1,4)-dibenzenacyclododecaphane-5-carboxamide], the IC50 with D283-med cell line (setting [3]) amounted to 1800 nM; in the series on SF188 cell line (setting [4]), 2460 nM; in the series with H460 cell line, 5380 nM.

In the case of “(5S,8S)-3^2,3^3,3^5,3^6-Tetrafluoro-8-isopropyl-9-methyl-N-((S)-4-methyl-1-((R)-2-methyloxiran-2-yl)-1-oxopentan-2-yl)-7,10-dioxo-2-thia-6,9-diaza-1(1,3),3(1,4)-dibenzenacycloundecaphane-5-carboxamide 2,2-dioxide [Compound 30]”, the half-maximal inhibitory concentration (IC50) in the series with D283-med cell line (setting [3]) amounted to 1470 nM; in the series with SF188 cell line (setting [4]), 1680 nM; in the series with H460 cell line it was 3200 nM.

Consider `CC(C)C[C@H](NC(=O)[C@@H]1Cc2c(F)c(F)c(c(F)c2F)S(=O)(=O)c2cccc(c2)CC(=O)N[C@@H](C(C)C)CC(=O)N1)C(=O)[C@@]1(C)CO1` [Compound 26, (5S,9R)-3^2,3^3,3^5,3^6-Tetrafluoro-9-isopropyl-N-((S)-4-methyl-1-((R)-2-methyloxiran-2-yl)-1-oxopentan-2-yl)-7,11-dioxo-2-thia-6,10-diaza-1(1,3),3(1,4)-dibenzenacyclododecaphane-5-carboxamide 2,2-dioxide], for which the IC50 in the series with D283-med cell line (setting [3]) turned out to be 472 ± 36 nM; with SF188 cell line (setting [4]) it was 673 ± 50 nM; in the series on H460 cell line, 2360 nM.

Regarding `CC(C)C[C@H](NC(=O)[C@@H]1Cc2ccc(cc2)SCCCCCC(=O)NC(C)(C)C(=O)N1)C(=O)[C@@]1(C)CO1` [Compound 36, (S)-10,10-Dimethyl-N-((S)-4-methyl-1-((R)-2-methyloxiran-2-yl)-1-oxopentan-2-yl)-8,11-dioxo-2-thia-9,12-diaza-1(1,4)-benzenacyclotetradecaphane-13-carboxamide], the values for the IC50 in the series with D283-med cell line (setting [3]), in the series with SF188 cell line (setting [4]) and in the series on H460 cell line were 1440 nM, 2260 nM and 2330 nM, respectively.

With `CC(C)C[C@@H](NC(=O)[C@@H]1Cc2ccc(cc2)S(=O)(=O)CCCCCC(=O)NC(C)(C)C(=O)N1)C(=O)[C@@]1(C)CO1` [Compound 37, (S)-10,10-Dimethyl-N-((R)-4-methyl-1-((R)-2-methyloxiran-2-yl)-1-oxopentan-2-yl)-8,11-dioxo-2-thia-9,12-diaza-1(1,4)-benzenacyclotetradecaphane-13-carboxamide 2,2-dioxide], the results for the IC50 in the series on D283-med cell line (setting [3]), with SF188 cell line (setting [4]) and with H460 cell line were 590 ± 20 nM, 4420 nM and 1720 nM, respectively.

Consider `CC(C)C[C@H](NC(=O)[C@@H]1Cc2c(F)c(F)c(c(F)c2F)Sc2cccc(c2)CC(=O)NC(C)(C)C(=O)N1)C(=O)[C@@]1(C)CO1` [Compound 20, (S)-3^2,3^3,3^5,3^6-Tetrafluoro-8,8-dimethyl-N-((S)-4-methyl-1-((R)-2-methyloxiran-2-yl)-1-oxopentan-2-yl)-7,10-dioxo-2-thia-6,9-diaza-1(1,3),3(1,4)-dibenzenacycloundecaphane-5-carboxamide], for which the IC50 in the series with D283-med cell line (setting [3]) came to 662 ± 44 nM; in the series on SF188 cell line (setting [4]) it was 611 ± 85 nM; with H460 cell line, 828 ± 57 nM.

Regarding `CC(C)C[C@H](NC(=O)[C@@H]1Cc2c(F)c(F)c(c(F)c2F)S(=O)(=O)c2cccc(c2)CC(=O)N[C@@H]([C@H](C)O)C(=O)N1)C(=O)[C@@]1(C)CO1` [Compound 27, (5S,8S)-3^2,3^3,3^5,3^6-Tetrafluoro-8-((S)-1-hydroxyethyl)-N-((S)-4-methyl-1-((R)-2-methyloxiran-2-yl)-1-oxopentan-2-yl)-7,10-dioxo-2-thia-6,9-diaza-1(1,3),3(1,4)-dibenzenacycloundecaphane-5-carboxamide 2,2-dioxide], the IC50 was found to be 28 ± 10 nM in the series with D283-med cell line (setting [3]), 72 ± 10 nM in the series with SF188 cell line (setting [4]) and 360 ± 56 nM in the series on H460 cell line. Further, the “% Recovery” value in series [1] is 88%. The “Mean Permeability” value in series [1] is 1.40 10^−6 cm/sec.

Take `Cn1cc(CNCC2CCN(c3ncc(C(=O)NO)cn3)CC2)c2ccccc21` [Quisinostat, reference compound]: the IC50 is 30 to 43 nM with D283-med cell line (Homo sapiens, D283 Med, read-out: D283-med IC50, medulloblastoma cell line); 37 ± 2 nM in the series with D283-med cell line (setting [3]); 30 to 43 nM with SF188 cell line (Homo sapiens, SF-188, read-out: SF188 IC50, glioblastoma cell line); 43 ± 2 nM in the series with SF188 cell line (setting [4]); 30 ± 3 nM with H460 cell line.

For the molecule “(5S,8S)-32,33,35,36-Tetrafluoro-8-isopropyl-N-((S)-4-methyl-1-((R)-2-methyloxiran-2-yl)-1-oxopentan-2-yl)-7,10-dioxo-2-thia-6,9-diaza-1,3(1,4)-dibenzenacyclododecaphane-5-carboxamide [Compound 18]”, the half-inhibitory concentration (IC50) in the series on D283-med cell line (setting [3]) came to 232 ± 12 nM; in the series with SF188 cell line (setting [4]), 239 ± 10 nM; with H460 cell line it was 1080 nM.

`CC(C)C[C@H](NC(=O)[C@@H]1Cc2c(F)c(F)c(c(F)c2F)Sc2cccc(c2)CC(=O)N(C)[C@@H](C(C)C)C(=O)N1)C(=O)[C@@]1(C)CO1` [Compound 19, (5S,8S)-3^2,3^3,3^5,3^6-Tetrafluoro-8-isopropyl-9-methyl-N-((S)-4-methyl-1-((R)-2-methyloxiran-2-yl)-1-oxopentan-2-yl)-7,10-dioxo-2-thia-6,9-diaza-1(1,3),3(1,4)-dibenzenacycloundecaphane-5-carboxamide]: the IC50 was 10800 nM in the series on D283-med cell line (setting [3]), 12300 nM with SF188 cell line (setting [4]) and over 15000 nM in the series on H460 cell line.

With `CC(C)CC(NC(=O)C1Cc2c(F)c(F)c(c(F)c2F)S(=O)(=O)c2cccc(c2)CC(=O)NC(C(C)C)CC(=O)N1)C(=O)C1(C)CO1` [Compound 25, (5S,9S)-3^2,3^3,3^5,3^6-Tetrafluoro-9-isopropyl-N-((S)-4-methyl-1-((R)-2-methyloxiran-2-yl)-1-oxopentan-2-yl)-7,11-dioxo-2-thia-6,10-diaza-1(1,3),3(1,4)-dibenzenacyclododecaphane-5-carboxamide 2,2-dioxide], the concentration for half-maximal inhibition (IC50) in the series on D283-med cell line (setting [3]), in the series on SF188 cell line (setting [4]) and in the series with H460 cell line was over 15000 nM in each case.

Regarding `CC(C)C[C@H](NC(=O)[C@@H]1Cc2ccc(cc2)S(=O)(=O)CCCCCC(=O)NC(C(C)C)C(=O)N1)C(=O)[C@@]1(C)CO1` (stereo partly drawn) [Compound 38, (13S)-10-Isopropyl-N-((S)-4-methyl-1-((R)-2-methyloxiran-2-yl)-1-oxopentan-2-yl)-8,11-dioxo-2-thia-9,12-diaza-1(1,4)-benzenacyclotetradecaphane-13-carboxamide 2,2-dioxide], the results for the IC50 with D283-med cell line (setting [3]), in the series with SF188 cell line (setting [4]) and in the series with H460 cell line were 16 ± 2 nM, 157 ± 45 nM and 287 ± 42 nM, respectively. Also, the “% Recovery” value in series [1] is reported as 99%. In addition, the “Mean Permeability” value in series [1] is given as 0.27 10^−6 cm/sec.

In the case of `CC(C)C[C@H](NC(=O)[C@@H](CSc1c(F)c(F)c(F)c(F)c1F)NC(=O)Cc1c(F)c(F)c(F)c(F)c1F)C(=O)[C@@]1(C)CO1` [Compound 5, (S)-N-((S)-4-Methyl-1-((R)-2-methyloxiran-2-yl)-1-oxopentan-2-yl)-2-(2-(perfluorophenyl)acetamido)-3-((perfluorophenyl)thio)propenamide], the IC50 in the series with D283-med cell line (setting [3]), in the series with SF188 cell line (setting [4]) and with H460 cell line was over 10000 nM each time.

For the molecule `CC(C)C[C@H](NC(=O)[C@@H]1Cc2c(F)c(F)c(c(F)c2F)Sc2cccc(c2)CC(=O)N2C[C@H]3[C@@H]([C@H]2C(=O)N1)C3(C)C)C(=O)[C@@]1(C)CO1` [Compound 13, (61S,64S,65R,9S)-1^2,1^3,1^5,1^6-Tetrafluoro-6^6,6^6-dimethyl-N-((S)-4-methyl-1-((R)-2-methyloxiran-2-yl)-1-oxopentan-2-yl)-5,7-dioxo-2-thia-6^3,8-diaza-6(3,4)-bicyclo[3.1.0]hexana-1(1,4),3(1,3)-dibenzenacyclodecaphane-9-carboxamide], the IC50 in the series on D283-med cell line (setting [3]), with SF188 cell line (setting [4]) and in the series on H460 cell line was over 15000 nM throughout.

In series [2], `C[C@H]1O[C@@H](O[C@H]2[C@@H](O)C[C@H](O[C@H]3[C@@H](O)C[C@H](O[C@H]4CC[C@@]5(C)[C@H](CC[C@@H]6[C@@H]5C[C@@H](O)[C@]5(C)[C@@H](C7=CC(=O)OC7)CC[C@]65O)C4)O[C@@H]3C)O[C@@H]2C)C[C@H](O)[C@@H]1O` [Digoxin, reference compound] came in with a Papp A→B of 1.3 ×10⁻⁶ cm/s and a Papp B→A of 13 ×10⁻⁶ cm/s.
